Assay results published in PMC6768323, “Adverse Maternal, Fetal, and Postnatal Effects of Hexafluoropropylene Oxide Dimer Acid (GenX) from Oral Gestational Exposure in Sprague-Dawley Rats” (Environmental Health Perspectives, 2019).

Test system: fetal testis
Assay: Fetal testis custom gene array for phthalate-like effects
Format: in vivo, Sprague-Dawley rats
Conditions: 62.5-500 mg/kg/d
Method: For the first two blocks, spanning the full dose range, late gestation (GD18) dams were euthanized by decapitation at ∼2h after the final oral dose [ ∼0830–1000 hours Eastern Standard Time (EST)]. Trunk blood was collected and serum isolated via centrifugation ( 10,000×g for 15 min at 4°C) in vacutainer tubes, transferred to 1.5-mL microcentrifuge tubes and stored at −80°C . Dam liver weight was recorded and a sample of liver tissue was collected into a polypropylene microcentrifuge tube containing 500μL TRIzol Reagent (Invitrogen) on ice. Fetuses were removed and two randomly selected fetuses per litter were weighed. […] Ex vivo fetal testis testosterone production was measured as previously reported ([Wilson et al. 2004b]) except the radioimmunoassay (RIA) utilized here was supplied by ALPCO (Catalog No. 72-TESTO-CT2, ALPCO). […]
Gene expression in fetal testes and fetal/maternal livers was assessed using reverse transcriptase real-time PCR of cDNA synthesized from RNA extracted from sample homogenates. […] RNA concentration and purity (260:280 ratio ≥1.8 ) were determined with a NanoDrop 2000 spectrophotometer (Thermo Scientific). […] PCR reactions were run using RT2 SYBR Green quantitative PCR (qPCR) Master Mix (SABioscience) on an iCycler iQ Real-Time Detection System (Bio-Rad) for fetal testes and on a CFX96 Touch Real-Time Detection System (Bio-Rad) for maternal and fetal livers. […]

## O=C(O)C(F)(OC(F)(F)C(F)(F)C(F)(F)F)C(F)(F)F (stereo not shown) [HFPO-DA, Hexafluoropropylene oxide dimer acid]
  fetal testis gene expression versus controls: not significantly different from controls
